Legend:
[1] = tested on: guinea-pigs intoxicated with verapamil; experiment: Survival of anesthetized guinea-pigs intoxicated with verapamil (acute heart failure); type: in vivo, guinea-pig (Dunkin Hartley); conditions: verapamil 2.0 mg/kg i.v.; 60 min follow-up; low doses: levosimendan 8.4 μg/kg bolus + 0.14 μg/kg/min, CaCl2 10 mg/kg bolus + 0.5 mg/kg/min; vs saline control
Description: At zero time, the intoxication was started with an intravenous bolus injection of verapamil and immediately continued with a 4-min infusion. The total dose of verapamil was 2.0 mg/kg. Control animals were treated with saline.
(§1) 120 spontaneously breathing guinea-pigs (Dunkin Hartley, weighing 470±5 grams, mean±SEM) were anesthetised with isoflurane. The left ventricular and brachial arterial pressures were measured. The carotid artery was surgically exposed in order to introduce a pressure transducer into the left ventricle. A fluid-filled polyethylene cannula was inserted into the brachial artery and connected to another pressure transducer for recording of arterial pressure. The pressure signals were amplified, digitized and sampled.

[2] = tested on: guinea-pigs intoxicated with diltiazem; experiment: Survival of anesthetized guinea-pigs intoxicated with diltiazem (acute heart failure); type: in vivo, guinea-pig (Dunkin Hartley); conditions: diltiazem 4.5 mg/kg i.v.
Description: At zero time, the intoxication was started with an intravenous bolus injection of diltiazem and immediately continued with a 4-min infusion. The total dose of diltiazem was 4.5 mg/kg. Control animals were treated with saline. All treatments were started one minute after the end of the diltiazem infusion. *p<0.05, **p<0.01, ***p<0.001 vs. control (Kaplan-Meier survival analysis followed by the logrank test).
as §1

For `CC1CC(=O)NN=C1c1ccc(NN=C(C#N)C#N)cc1` (single isomer, unassigned; (-)) [levosimendan, (−)-enantiomer of [[4-(1,4,5,6-tetrahydro-4-methyl-6-oxo-3-pyridazinyl)phenyl]hydrazono]propanedinitrile], the “effect on survival (in words)” value [1] was “did not improve the survival” and the survival rate ([2]; 60 minutes after intoxication began, levosimendan 8.4 μg/kg bolus + 0.14 μg/kg/min, control 13%) was 63%.

For `[Ca+2].[Cl-].[Cl-]` [calcium chloride], the “effect on survival (in words)” value [1] was “did not affect the survival rate” and the “effect on survival (in words)” value ([2]; 60 min follow-up, low doses: levosimendan 8.4 μg/kg bolus + 0.14 μg/kg/min, CaCl2 10 mg/kg bolus + 0.5 mg/kg/min, vs saline control) was “did not affect the survival rate”.

Reference: US7279479B2, “Method for the treatment of heart failure” (Orion Corporation, priority 2001, dated 2007)
